Experimental findings from patent EP3628659A1, “SELENOESTER-CONTAINING COMPOUNDS FOR USE IN THE TREATMENT OF MICROBIAL INFECTIONS OR COLORECTAL CANCER” (Consejo Superior De Investigaciones Científicas, priority 2018, dated 2020) are described below.

Like-named read-outs stand apart in the source and are kept apart here. A value given as a limit tells only on which side of the number the result lay.

The test system of one test is Escherichia coli AG100. Nature of the test: MIC determination (CLSI), E. coli AG100. The format is cell-based. The note with it: MIC class. Here is the method:
(§1) The effects exerted by different concentrations of the compounds on bacterial growth in Staphylococcus aureus 25923 ATCC, Staphylococcus aureus multidrug resistant 272123 clinical isolate (MRSA), Escherichia coli AG100 or Escherichia coli AG100 A were tested in 96-well plates. The MIC of selenocompounds was determined according to Clinical and Laboratory Standard Institute (CLSI) guidelines. The solvent used (DMSO) had no antibacterial effect. Alternatively, the MICs of oxacillin of the compounds in MRSA HEMSA 5 were determined by a broth microdilution method in cation-adjusted Mueller-Hinton Broth (MHB II) according to the recommendations of the CLSI. Results were recorded after a 20- or 24-hour incubation at 37°C.

For the next test, the system named is Saccharomyces cerevisiae. Nature of the test: Antifungal activity (optical density), Saccharomyces cerevisiae. The format is cell-based. Here is the method:
(§2) The compounds were tested for their antifungal and nematicidal properties against the fungi Candida albicans and Saccharomyces cerevisiae, and against the nematode Steinernema feltiae.
(§3) Fungal cell densities were determined by measuring the optical density (OD) at 570 nm at 0 h (first measurement immediately after incubation), 4 h, and 24 h after incubation at 37 °C; and using a Universal Microplate Reader, EL800, Biotech Instruments, Inc. Highland Park, Winooski, VT, USA. Compounds were dissolved in 1% DMSO and were tested at final concentrations of 50, 100, 150, and 200 µM. Nutrient Sabouraud Dextrose (SD), and Yeast Peptone Dextrose (YPD) were used as media for C. albicans, and S. cerevisiae, respectively. Ketoconazole was used as the positive control for C. albicans and S. cerevisiae. The growth culture with medium for each organism was used as the negative control. The Solvent 1% DMSO stock was used as a solvent control. All experiments were carried out in triplicate and on three different occasions (n = 9).
(§4) For the three organisms considered (C. albicans, S. cerevisiae and S. feltiae), the inhibitory concentration 50% (IC50) is defined as the concentration that inhibits the viability of the respective organism to a 50% of the viability determined for the negative control.

A further test deals with Escherichia coli AG100 A. Nature of the test: MIC determination (CLSI), E. coli AG100 A. The format is cell-based. To be noted: MIC class. Here is the method:
as §1

A further test has as its system Steinernema feltiae. Nature of the test: Nematicidal activity (viability count), Steinernema feltiae. The format is in vivo. To be noted: IC50 class, tested at 50, 100, 150 and 200 µM, viability at 24 h. Here is the method: as §2
The soil nematodes S. feltiae were purchased from Sautter and Stepper GmbH (Ammerbuch, Germany) and stored at 4 °C in the dark. Before each experiment, fresh samples of nematodes were purchased and stored in the fridge upon arrival and used for a maximum of six days. To perform the assay, 200 mg of nematodes was reconstituted in 50 mL of phosphate buffered saline (PBS) (pH = 7.4) to form a homogenous suspension to revive the nematodes. Afterwards, the individual suspensions were allowed to rest at room temperature. The sedimentation was avoided with occasional shaking in moderate light and at room temperature (25 °C) for 30 min. Viability of the nematodes was determined by counting the live and dead nematodes under a light microscope (TR 200, VWR International, Leuven, Belgium) at four-fold magnification. An initial viability value of more than 90 percent was considered necessary to perform the experiments.
Sample solutions were added into the wells of a 96-well plate to achieve at final concentrations of 50,100, 150, and 200 µM. Afterwards, 10 µL of nematode suspension was added to each well and the final volume in each well was adjusted to 100 µL with phosphate buffered saline (PBS) (pH = 7.4). PBS was used in the negative control and ethanol in the positive control. Viability was determined at 0 h and 24 h by counting the live and dead nematodes, whereby 50 µL of lukewarm water (40 °C) were added to each well to stimulate the nematodes for the 24 h reading. Each experiment was performed independently in triplicate and on three different occasions (n = 9).
as §4

A further test relates to Candida albicans. Nature of the test: Antifungal activity (optical density), Candida albicans. The format is cell-based. The note with it: IC50 class, tested at 50, 100, 150 and 200 µM, OD 570 nm, 37 °C. Here is the method: as §2, §3, §4
[1] abbreviates: read-out: Antifungal activity Saccharomyces cerevisiae, IC50 class, tested at 50, 100, 150 and 200 µM, OD 570 nm, 37 °C, read-out: Antifungal activity Streptomyces cerevisiae.

On to `CC(=O)C[Se]C(=O)c1cc(C(=O)[Se]CC(C)=O)cc(C(=O)[Se]CC(C)=O)c1` [Compound 24, Se,Se,Se-tris-(2-oxopropyl) benzene-1,3,5-tris-(carboxyselenoate)], for which the “Antibacterial activity Against E. coli AG100” value in the test with Escherichia coli AG100 was “** (Moderate antibacterial compounds: 10 µM < MIC ≤ 50 µM)”. For the same compound, the IC50 with Saccharomyces cerevisiae (setting [1]), with Steinernema feltiae and with Candida albicans was over 100 µM in each case. For the same compound, in the test on Escherichia coli AG100 A, the “Antibacterial activity Against E. coli AG100 A” value is “** (Moderate antibacterial compounds: 10 µM < MIC ≤ 50 µM)”.

Take `N#CC[Se]C(=O)c1cc(C(=O)[Se]CC#N)cc(C(=O)[Se]CC#N)c1` [Compound 20, Se,Se,Se-tris-(cyanomethyl) benzene-1,3,5-tris-(carboxyselenoate)]: the “Antibacterial activity Against E. coli AG100” value with Escherichia coli AG100 was “NA (Not antibacterial compounds: MIC ≥ 100 µM)”. In addition, the IC50 in the test on Saccharomyces cerevisiae (setting [1]) was 10 to 50 µM; in the test on Steinernema feltiae, over 100 µM; with Candida albicans it was 10 to 50 µM. The “Antibacterial activity Against E. coli AG100 A” value in the test with Escherichia coli AG100 A is reported as “NA (Not antibacterial compounds: MIC ≥ 100 µM)”.

`CC(=O)C[Se]C(=O)c1cccc(C(=O)[Se]CC(C)=O)c1` [Compound 23, Se,Se-bis-(2-oxopropyl) benzene-1,3-bis-(carboselenoate)]: in the test with Escherichia coli AG100, the “Antibacterial activity Against E. coli AG100” value was “** (Moderate antibacterial compounds: 10 µM < MIC ≤ 50 µM)”. For the same compound, the IC50 in the test on Saccharomyces cerevisiae (setting [1]) is over 100 µM; with Steinernema feltiae it was over 100 µM; with Candida albicans it was 10 to 50 µM. For the same compound, in the test on Escherichia coli AG100 A, the “Antibacterial activity Against E. coli AG100 A” value is listed as “** (Moderate antibacterial compounds: 10 µM < MIC ≤ 50 µM)”.

Consider `N#CC[Se]C(=O)c1cccc(C(=O)[Se]CC#N)c1` [Compound 19, Se,Se-bis-(cyanomethyl)benzene-1,3-bis-(carboselenoate)], for which the “Antibacterial activity Against E. coli AG100” value in the test with Escherichia coli AG100 is on record as “NA (Not antibacterial compounds: MIC ≥ 100 µM)”. The IC50 in the test with Saccharomyces cerevisiae (read-out: Antifungal activity Saccharomyces cerevisiae), in the test on Steinernema feltiae and in the test with Candida albicans was 10 to 50 µM in each case. In addition, in the test with Escherichia coli AG100 A, the “Antibacterial activity Against E. coli AG100 A” value is reported as “NA (Not antibacterial compounds: MIC ≥ 100 µM)”.

With `N#CC[Se]C(=O)c1ccc(C(=O)[Se]CC#N)cc1` [Compound 18, Se,Se-bis-(cyanomethyl) benzene-1,4-bis-(carboselenoate)], the “Antibacterial activity Against E. coli AG100” value in the test with Escherichia coli AG100 is recorded as “** (Moderate antibacterial compounds: 10 µM < MIC ≤ 50 µM)”. Also, the IC50 is over 100 µM in the test with Saccharomyces cerevisiae (setting [1]), 10 to 50 µM in the test on Steinernema feltiae and 50 to 100 µM in the test with Candida albicans. Moreover, in the test on Escherichia coli AG100 A, the “Antibacterial activity Against E. coli AG100 A” value was “** (Moderate antibacterial compounds: 10 µM < MIC ≤ 50 µM)”.

For the compound `CC(=O)C[Se]C(=O)c1ccc(C(=O)[Se]CC(C)=O)cc1` [Compound 22, Se,Se-bis-(2-oxopropyl) benzene-1,4-bis-(carboselenoate)], in the test with Escherichia coli AG100, the “Antibacterial activity Against E. coli AG100” value is recorded as “** (Moderate antibacterial compounds: 10 µM < MIC ≤ 50 µM)”. The IC50 in the test with Saccharomyces cerevisiae (setting [1]) was 50 to 100 µM; in the test on Steinernema feltiae, 50 to 100 µM; in the test with Candida albicans, 10 to 50 µM. For the same compound, in the test with Escherichia coli AG100 A, the “Antibacterial activity Against E. coli AG100 A” value is “** (Moderate antibacterial compounds: 10 µM < MIC ≤ 50 µM)”.
